Reference: US20070031336A1, “3H-phenoxazine derivatives suitable as near-infrared imaging agents, preparation an use thereof” (priority 2003, published 2007)
pKd: −log10 of the molar value.

Experiments:
[1] = exc. 595 nm; cited from earlier work
[2] = UV/VIS absorption spectra; format: physicochemical
Procedure: (§1) UV/VIS and fluorescence spectra are recorded and analyzed. For UV/VIS spectra, a Lambda 19 spectrometer from Perkin Elmer equipped with cells of 1.000 cm pathlength is used. The scan rate is 120 nm/min. The fluorescence data are obtained on a Spex Fluorolog (I.S.A.) spectrometer equipped with a cooled R928 detector (Slit 1 mm). Quantum yields are determined by using Cresylviolett (exc. 595 nm, yield=0.54) as standard.

[3] = Fluorescence spectra and quantum yield; format: physicochemical; conditions: for Fluorescence φ (quantum yield): standard Cresylviolett
Procedure: as §1

[4] = biological target: T1, aggregated Aβ peptide Aβ1-140 (Homo sapiens, UniProt P05067); experiment: Binding to aggregated Aβ in solution by differential fluorescence spectroscopy
T1 construct: aggregated Aβ peptide Aβ1-140 in solution
T1 sequence (P05067 672-711 limits assumed): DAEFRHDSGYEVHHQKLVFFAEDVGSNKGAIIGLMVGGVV
Procedure: (§2) Binding of the agent of the invention (compound Ex. 3) to aggregated Aβ peptide Aβ1-140 in solution is investigated by differential fluorescence spectroscopy and thioflavine displacement. […] Difference spectra are recorded at different concentrations of the agent of the invention (compound Ex. 3) with the magnitude of the fluorescence shift being dependent on the concentration of aggregated Aβ. Saturation is observed at high concentrations of the agent of the invention (compound Ex. 3), and the Kd-value for the agent of the invention (compound Ex. 3) is estimated to be 0.2 μM. In another experiment, aggregated Aβ is incubated with thioflavine T, where fluorescence intensity at 460-560 nm (excitation 445 nm) represents thioflavine bound to aggregated Aβ.

aggregated Aβ = biological target: T2, aggregated Aβ (Homo sapiens, UniProt P05067); experiment: Thioflavine T displacement from aggregated Aβ; format: binding; conditions: fluorescence 460-560 nm, excitation 445 nm
T2 construct: aggregated Aβ peptide Aβ1-140 in solution
T2 sequence (P05067 672-711 limits assumed): as above
Procedure: as §2

AD plaques = experiment: In vivo near-infrared imaging in APP23 mice; parameters: species or system mouse; conditions: female 16-months-old transgenic APP23 mice, 3 mg/kg i.v.
Procedure: For in vivo near-infrared imaging, 10- to 24-months-old transgenic APP23 mice (3≦n≦5) and as control, non-transgenic APP23 mice of the same age (3≦n≦4) are injected intravenously (i.v.) into the tail-vein with 0.1, 1 and 3 mg/kg agent of invention (0.1, 1 and 3 mg/10 ml in 0.9% saline). Images are recorded 30, 60, 120 and 240 min after systemic administration.

Absorption ε ([2]; solvent H2O) [I/Mcm]	Absorption λmax ([2]; solvent H2O) [nm]	Absorption ε ([2]; solvent methanol) [I/Mcm]	Absorption λmax ([2]; solvent methanol) [nm]	Absorption λmax ([2]; solvent mouse serum) [nm]	Fluorescence λmax ([3]; solvent H2O) [nm]	Fluorescence φ (quantum yield) ([3]; solvent H2O) [%]	Fluorescence λmax ([3]; solvent methanol) [nm]	Fluorescence φ (quantum yield) ([3]; solvent methanol) [%]	Fluorescence λmax ([3]; solvent mouse serum) [nm]	Fluorescence φ (quantum yield) ([3]; solvent mouse serum) [%]	pKd ([4]; estimated from difference spectra, saturation at high concentrations)	Change of fluorescence spectrum upon β-amyloid binding ([4]; range of 680-720 nm)	pKd (aggregated Aβ; thioflavine concentrations 0.37 μM-3 μM, read-out: apparent binding constants)	SMILES	Quantum yield of the standard [1]	Effect on fluorescence of thioflavine bound to aggregated Aβ (aggregated Aβ)	Specific binding to AD plaques (FIG. 1) (AD plaques)
–	–	–	–	–	–	–	–	–	–	–	–	–	–	N=c1ccc2nc3c(cc(N)c4ccccc43)oc-2c1 [Cresylviolett]	0.54	–	–
56700	657	67430	649	658	677	24	677	61	677	28	–	–	–	CC[N+]1=c2cc3c(cc2CCC1)=Nc1cc2c(cc1O3)N(C)CCO2.[Cl-] [Ex. 2, 8-Ethyl-4-methyl-2,3,4,9,10,11-hexahydro-1,6-dioxa-4,13-diaza-8-azonia-pentacen chloride]	–	–	–
61930	650	64570	644	650	670	37	670	61	670	41	~6.70	slightly reduced fluorescence intensity	6.70 to 7.00	CN1CCOc2cc3c(cc21)Oc1cc2c(cc1=N3)OCC[N+]=2C.F[B-](F)(F)F [Ex. 3, 4,8-Dimethyl-3,8,9,10-tetrahydro-2H-1,6,11-trioxa-8,13-diaza-4-azonia-pentacen tetrafluoroborate]	–	concentration-dependent fluorescence reduction	specific binding
12880	665	13920	659	665	695	12	695	28	695	13	–	–	–	CN1CCOc2cc3c(cc21)Oc1cc2c(cc1=N3)SCC[N+]=2C.[Cl-] [Ex. 4, 4,8-Dimethyl-2,3,9,10-tetrahydro-4H-1,6-dioxa-11-thia-4,13-diaza-8-azonia-pentacen chloride]	–	–	–
